Laboratory results taken from ChEMBL document CHEMBL5154858, “Pocket-to-Lead: Structure-Based De Novo Design of Novel Non-peptidic HIV-1 Protease Inhibitors Using the Ligand Binding Pocket as a Template” (J Med Chem, 2022).

Assays:
[1] = target: Human immunodeficiency virus type 1 protease (Human immunodeficiency virus 1, UniProt Q72874); test: Inhibition of wild type HIV1 protease expressed in Escherichia coli BL21 DE3 assessed as cleavage of fluorogenic substrate using EDANS-RESGIFLETSKR-DABCYL preincubated for 15 mins with compound followed by substrate addition and measured after 60 mins by microplate reader analysis
[2] = tested on: Human immunodeficiency virus 1; test: Antiviral activity against HIV-1 IIIB infected in human MT4 cells assessed as inhibition of virus-induced cell death preincubated for 1 hr with compound followed by viral infection measured after 5 days by MTT assay; format: functional, organism-based; conditions: Human immunodeficiency virus 1, IIIB

Row | Compound | IC50 [1] [µM] | EC50 [2] [µM]
1 | CCC[C@]1(c2ccc(S(C)(=O)=O)cc2)C(=O)N(Cc2ccc(OC)cc2)C[C@@H]1O (mixture of isomers) | 32 | –
2 | COc1ccc(CN2C[C@@H](O)[C@@](Cc3ccc(F)cc3)(c3ccc(S(C)(=O)=O)cc3)C2=O)cc1 (mixture of isomers) | 77 | –
3 | COc1ccc(CN2C[C@H](O)[C@@](CCC(C)C)(c3ccc(S(C)(=O)=O)cc3)C2=O)cc1 (mixture of isomers) | 2 | > 20
4 | COc1ccc(CN2C[C@H](O)[C@@](CC(C)C)(c3ccc(S(C)(=O)=O)cc3)C2=O)cc1 (mixture of isomers) | 34 | –
5 | COc1ccc(CN2C[C@H](O)[C@@](CCC(C)C)(c3ccc(S(C)(=O)=O)cc3OC(C)C)C2=O)cc1 (mixture of isomers) | 0.082 | 11
6 | COc1ccc(CN2C[C@H](O)[C@@](CCC(C)C)(c3ccc(S(C)(=O)=O)cc3O[C@@H](C)CO)C2=O)cc1 (mixture of isomers) | 0.0071 | 0.86
7 | COc1ccc(CN2C[C@H](O)[C@@](Cc3ccc(F)cc3)(c3ccc(S(C)(=O)=O)cc3)C2=O)cc1 (racemic) | 54 | –
